In assay [1] the test system is pancreatic cancer. Conditions: cited from earlier work.
Assay [2] relates to PANC-1 cells. To be noted: cited from earlier work.
Assay [3] deals with HT29. Conditions: colon cancer cell line HT29; cited from earlier work.
Assay [4] relates to SW480. To be noted: colon cancer cell line SW480; cited from earlier work.
Assay [5] concerns pancreatic tumor cell line MIA PaCa2. Nature of the assay: MTT assay in 3-dimentional tumor model (HuBiogel). To be noted: MIA PaCa2 3-D tumor beads. The class given is cell-based. How it is done: (§1) The compound sodium trans-[tetrachlorobis(1H-indazole)ruthenate(III)] was tested in a 3-dimentional tumor model derived from pancreatic tumor cell line MIA PaCa2. Specifically, cells were trypsinized, washed, counted by trypan blue exclusion. Tumor beads were then prepared by mixing 20,000 cells/10 μl of HuBiogel (4 mg/mL) (See U.S. patent application Ser. No. 10/546,506, which is incorporated herein by reference). The 3-D tumor beads were cultivated for 72 hours in multi-well plates with complete media (10% FBS) in a 37° C. incubator+5% CO2. Mini-tumors were treated with various concentrations of the test compound sodium trans-[tetrachlorobis(1H-indazole)ruthenate(III)] in media (final 0.2-0.3% DMSO) or control (DMSO). Repeated drug treatment was done by removing the culture media and replacing with fresh media with drug compound or DMSO. On Day 3, MTT assay and live-cell staining with Calcein AM were performed (5 beads/assay set).
(§2) Statistical analysis of data sets (Average, T-test, GI-50) was performed using MS-Excel program.
In general terms: Tetrazolium dyes change colour on reduction, which living cells bring about.

Assay [6] concerns Capan-1. Conditions: Capan-1, 72 hours post-treatment, MTT. Here is the method:
(§3) To test the activities of sodium trans-[tetrachlorobis(1H-indazole)ruthenate(III)], ATCC's MTT Cell Proliferation Assay® was performed using human pancreatic cancer cell lines PANC-1 and Capan-1. Stock cultures were allowed to grow to 70-80% confluence for this study. The anti-proliferative activity of sodium trans-[tetrachlorobis(1H-indazole)ruthenate(III)], against the indicated cell lines was evaluated in vitro using the ATCC's MTT Cell Proliferation Assay (Catalog No. 30-1010K). PANC-1 cells were grown in DMEM medium with 10% FBS and 1% pen/strep/glutamine. Capan-1 cells were grown using IMDM medium 20% FBS and 1% of pen/strep/glutamine. Panc 1 and Capan-1 cell plates were seeded with 6000 cells/well and 15,000 cells/well, respectively, and treated with sodium trans-[tetrachlorobis(1H-indazole)ruthenate(III)] at 1,000 μM, or a series of 4× dilutions thereof (250 μM, 62.5 μM, etc.). 100 μl of medium was removed from each well at 72 hours post-treatment and MTT reagent was added to each well. The plates were incubated plate at 37° C. for 4 hours and then 100 μl of detergent was added. The plates were left overnight at room temperature in the dark and was read on a plate reader using SoftMax® Pro (version 5.2, Molecular Devices).
(§4) The absorbance data was analyzed as follows: Absorbance values were converted to Percent of Control and plotted against test agent concentrations for IC50 calculations using SoftMax® Pro (version 5.2, Molecular Devices). The plate blank signal average was subtracted from all wells prior to calculating the Percent of Control. Percent of Control values were calculated by dividing the absorbance values for each test well by the No Drug Control average (column 11 values; cells+vehicle control) and multiplying by 100. Plots of Compound Concentration versus Percent of Control were analyzed using the 4-parameter equation to obtain IC50 values and other parameters that describe the sigmoidal dose response curve.
(§5) The IC50 value for the test agents was estimated by curve-fitting the data using the following four parameter-logistic equation: […]

Assay [7] relates to PANC-1. Here is the method:
as §3, §4, §5

Assay [8] concerns pancreatic tumor cell line MIA PaCa2. Nature of the assay: live-cell staining with Calcein AM in 3-dimentional tumor model (HuBiogel). Type of assay: cell-based. Conditions: MIA PaCa2 3-D tumor beads, Day 3. How it is done: as §1, §2

Consider `Nc1ccn([C@@H]2O[C@H](CO)[C@@H](O)C2(F)F)c(=O)n1` [gemcitabine], for which the “efficacy in pancreatic cancer” value in assay [1] (weekly intravenous administration) is on record as “effective”. Further, in assay [2], the “sensitivity of PANC-1 cells to the drug” value is reported as “resistant”.

In the case of `[Cl-].[Cl-].[Cl-].[Cl-].[Ru+3].c1ccc2[nH][nH+]cc2c1.c1ccc2[nH]ncc2c1.c1ccc2[nH]ncc2c1` [Indazolium trans-[tetrachlorobis(1H-indazole)ruthenate(III)], reference compound], the killing tumor cells result in assay [3] and in assay [4] was “effective in killing tumor cells” throughout.

In general, IC50 refers to the concentration needed to halve the response being measured. For `[Cl][Ru-]([Cl])([Cl])[Cl].[Na+].c1ccc2[nH]ncc2c1.c1ccc2[nH]ncc2c1` [sodium trans-[tetrachlorobis(1H-indazole)ruthenate(III)]], the killing tumor cells entry in assay [3] and in assay [4] was “effective in killing tumor cells” in each case. Moreover, the “tumor proliferation activity (MTT)” value in assay [5] (Day 3, FIG. 1) is on record as “significantly inhibited tumor proliferation activity”. In addition, in assay [5] (MTT assay on Day 3, read-out: average GI-50 (the drug concentration required for growth inhibition at 50%)), the GI50 is 35.7 µM. Further, the IC50 in assay [6] is 45.2 µM; in assay [7] (PANC-1, 72 hours post-treatment, MTT), 30.6 µM. The “activity in cells resistant to gemcitabine and erlotinib” value in assay [7] (PANC-1 cells) is recorded as “active”. In addition, in assay [8], the “tumor killing in live-cell staining/image analysis” value is recorded as “dose-dependent tumor killing effective”.

With `C#Cc1cccc(Nc2ncnc3cc(OCCOC)c(OCCOC)cc23)c1` [erlotinib], the “median overall survival benefit” value in assay [1] (erlotinib in combination with gemcitabine, advanced-stage pancreatic cancer patients) was “less than four weeks”. The “sensitivity of PANC-1 cells to the drug” value in assay [2] is “resistant”.

Source of the values: US20130190285A1, “METHOD OF TREATING PANCREATIC CANCER” (Niiki Pharma Inc., priority 2009, published 2013).
